In a melting point compilation (Tetko et al.; mined from patent text by program, amines drawn as free bases though some values may be those of a salt):
Residues, ends and D or L forms follow the SMILES beside them. *: point of attachment. NHPhenethyl = c1ccc(CCN*)cc1; Tos = Cc1ccc(S(=O)(=O)*)cc1; Cbz = O=C(OCc1ccccc1)*

First: CC(C)(C)C(=O)C(Br)C(c1ccc(Cl)cc1)S(=O)(=O)c1ccccc1 (centres undefined)
Second: CS(=O)(=O)c1ccc(C(Cc2ccccc2F)C(=O)Nc2nc3ccccc3o2)cc1 (centres undefined)
The melting point of the first is higher: 167 to 168 °C for the first, 99 to 100 °C for the second.

First: CC(=O)OCC1OC(n2cnc3c(NCC(c4ccccc4)c4ccccc4)ncnc32)C(OC(C)=O)C1OC(C)=O (centres undefined)
Second: CN1CCN(C(=O)[C@H](CC(N)=O)Nc2ccc(OCc3ccccc3)cc2OCc2ccccc2)CC1
The melting point of the first is lower: 75 to 80 °C for the first, 83 to 85 °C for the second.

Compared with `CCC([O-])=C(C(=O)OCc1ccccc1)N1C(=O)CC1[N+](CC)(CC)CC` (centres undefined), `COC(=O)CCCCC(NC(=O)c1ccccc1)C(C)=O` (centres undefined) is lower in melting point: 107 °C for the first, 59 to 60 °C for the second.

Compared with `CC(=O)Oc1c(C(C)(C)C)cc2occc2c1C(C)(C)C`, `COC(=O)C(C)(C)Cc1ccc2oc(-c3nc(C(C)(C)C)cs3)cc2c1` is lower in melting point: 87.7 °C for the first, 42 to 43 °C for the second.

Compared with `CC(=O)Nc1ccc(NC(=O)CN2CCC(Cc3ccc(F)cc3)CC2)cc1`, `O=C(Nc1ccc(Cl)cn1)c1cc(Cl)ccc1NCC1CCN(C(=O)c2cccs2)CC1` is lower in melting point: 173 to 180 °C for the first, 163 to 165 °C for the second.

First: NC(=O)CC(NC(=O)C(CO)NC(=O)CNC(=O)CNC(=O)OCc1ccccc1)C(=O)NC(Cc1ccccc1)C(=O)NCCc1ccccc1 (centres undefined) (Cbz-GGSNF-NHPhenethyl; configuration not given here)
Second: CCOC(=O)c1cc2c3ccccc3n(Cc3ccccc3)c2c(C)n1
The melting point of the first is higher: 225 to 229 °C for the first, 155 to 156 °C for the second.

Compared with `NC(=O)N(O)CC=Cc1ccc(-c2ccccc2)o1`, `Cn1c(-c2ccccc2)c(C(=O)CCn2ccnc2)c2ccccc21` is higher in melting point: 157 to 158 °C for the first, 159 to 162 °C for the second.

First: c1ccc(CN2CCOc3cccc4nc5c(c2c34)CCCC5)cc1
Second: Cc1cccc2nc3c(cc12)sc1cccc(Cl)c13
The melting point of the first is lower: 132 to 133 °C for the first, 143 to 146 °C for the second.

First: OCCCc1cnoc1-c1ccc(Cl)cc1
Second: OCc1ccc(Cc2ccc3c(c2)OCO3)o1
The melting point of the first is lower: 58 to 59 °C for the first, 68 to 69 °C for the second.

Compared with `Oc1cc(CCl)ncn1`, `O=C(O)c1cc2cc(Cl)ccc2nn1` is higher in melting point: 164 to 166 °C for the first, 207 to 208 °C for the second.

First: CC(=O)Oc1ccc2c(c1)C(=O)N(C(C)=O)C(C(Cl)(Cl)Cl)O2 (centres undefined)
Second: O=C(O)c1ccc2c(c1)C(=O)N(c1ccccc1)C2=O
The melting point of the first is lower: 138 to 140 °C for the first, 257 to 258 °C for the second.

First: C#CCCCc1c2c3c(nc(N)c2nn1CCC)CCCC3
Second: Cc1ccc(S(=O)(=O)N2CCC[C@H]2C(=O)N[C@@H](CCCCN)C(=O)O)cc1 (Tos-Pro-Lys-OH)
The melting point of the first is lower: 167 to 169 °C for the first, greater than 200 °C for the second.

First: CN1CCN(CC(O)COc2cccc3ccccc23)CC1 (centres undefined)
Second: CS(=O)(=O)c1cc(OC[C@@H](O)CN[C@H]2CC[C@H](c3ccc(C(=O)N4Cc5ccccc5C4)cc3)CC2)ccc1O
The melting point of the first is lower: 73 to 74 °C for the first, 110 °C for the second.

First: CC(C)(C)[Si](C)(C)OCCN(CCON1C(=O)c2ccccc2C1=O)CCON1C(=O)c2ccccc2C1=O
Second: CN(O)C(=O)C(C)(C)Cc1ccc2c(c1)C(=O)c1ccccc1CO2
The melting point of the first is lower: 56 to 58 °C for the first, 192 to 194 °C for the second.

First: CCOC(=O)c1c(Cn2cncn2)nc2cc(OC)c(OC)cc2c1-c1ccc(O)c(OC)c1
Second: COc1ccc(OC)c(Cc2cc(C)cc(OC)c2C(=O)O)c1
The melting point of the first is higher: 176 to 178 °C for the first, 172 to 174 °C for the second.

First: CN(C)c1ccc2c(n1)C(c1ccccc1Cl)=NCc1n[nH]c(=O)n1-2
Second: COc1ccccc1-c1nc(N)c(C(N)=O)nc1-c1ccc(=O)n(C(C)C)c1
The melting point of the first is lower: 244 to 246 °C for the first, 263 °C for the second.

First: CC(=O)Nc1cc(C(F)(F)F)ccc1SCC#N
Second: CC(=O)c1c(-c2ccc(C(F)(F)F)cc2)[nH]c(-c2ccncc2)c1C
The melting point of the first is lower: 103 °C for the first, 178 to 180 °C for the second.

Compared with `CC(=NNC(=O)c1ccc([N+](=O)[O-])cc1)c1ccncc1`, `O=[N+]([O-])c1cnccc1N1CCc2ccccc21` is lower in melting point: 251 °C for the first, 159 to 160 °C for the second.

First: O=C1CC[C@@H](C(=O)N[C@@H](CSSC[C@H](NC(=O)[C@@H]2CCC(=O)N2)C(=O)O)C(=O)O)N1
Second: C[C@H](NC(=O)c1cc(Cl)c(Cl)cc1C(=O)O)C(=O)N1CCC[C@H]1C(=O)O
The melting point of the first is higher: 191 to 193 °C for the first, 134 to 137 °C for the second.

First: CC1=NC(NC(=O)Nc2cccc(C#N)c2)C(=O)N(CC(=O)C(C)(C)C)c2ccccc21 (centres undefined)
Second: COc1ccc(Cn2c(N)c(NC(=O)C(C)(C)OCc3ccccc3)c(=O)[nH]c2=S)cc1OC1CCCC1
The melting point of the first is higher: 246 to 247 °C for the first, 198 to 202 °C for the second.

Compared with `N#CCCNC(=O)c1cccc(-c2cccc3cc(Cc4cccc(C(F)(F)F)c4)[nH]c23)c1`, `FC(F)(F)c1cc(Cl)c(Oc2cc(-c3ccc(Cl)cc3)[nH]n2)c(Cl)c1` is higher in melting point: 174 to 178 °C for the first, 181 to 183 °C for the second.

First: COc1cc(OC)c(C(O)=S)cc1C
Second: COc1cc2[nH]c(C(=O)O)cc2cc1F
The melting point of the first is lower: 151 to 153 °C for the first, 239 to 240 °C for the second.

First: CC(C)(C)C(=NO)Nc1ccc(Cl)nn1
Second: C[Si](C)(C)CCCOc1ccc(C(=O)O)c(O)c1
The melting point of the first is lower: 128 to 130 °C for the first, 187 °C for the second.

Compared with `FC1CC(Nc2ncnc3[nH]ncc23)CCC1OCC(F)(F)c1ccccc1` (centres undefined), `CC(c1oc2ccccc2c(=O)c1-c1ccccc1)n1nc(C#CC(C)(C)O)c2c(N)ncnc21` (centres undefined) is lower in melting point: 178 to 179 °C for the first, 109 to 113 °C for the second.

Compared with `COC(=O)CCC1(CCC(=O)OC)c2cc(I)ccc2-c2ccc(I)cc21`, `COCCCCCC(=O)c1ccc(S(C)=O)cc1` (centres undefined) is lower in melting point: 106 to 108 °C for the first, 74 to 77 °C for the second.

First: O=c1[nH]c2cc(Cl)cc(Cl)c2c(O)c1Sc1ccccc1Cl
Second: C=CCn1c(COCc2ccc(OC)cc2)nc(C(C)C)c1Sc1cc(Cl)cc(Cl)c1
The melting point of the first is higher: 285 to 288 °C for the first, 100 to 102 °C for the second.

First: O=C(c1cccs1)c1cnn2c(-c3cccc(F)c3)ccnc12
Second: COc1cc(-n2cc(F)c(F)c2)ccc1-n1cc(OC)c(=O)c(-c2ccnn2-c2ccccc2)n1
The melting point of the first is higher: 235 to 237 °C for the first, 206 to 207 °C for the second.

First: Cc1ccc(N2C(=O)C(O)=C(C(=O)c3ccccc3C)C2c2ccc(C(C)C)cc2)nn1 (centres undefined)
Second: CCC(=O)C1=C(O)CC(c2ccc(Oc3cccc(S(C)(=O)=O)c3)cc2)CC1=O (centres undefined)
The melting point of the first is higher: 221 °C for the first, 110 to 114 °C for the second.

First: O=C1c2ccccc2C(=O)N1CCc1cccc(N2C(=O)N(c3c(Cl)cccc3Cl)Cc3cnc(Nc4ccccc4)nc32)c1
Second: CC(=O)Nc1ccc(S(=O)(=O)NCc2cc3c(ccc4cnn(C[C@H](C)N)c43)o2)cc1
The melting point of the first is higher: 142 °C for the first, 80 to 85 °C for the second.

First: Cc1ccc(C2COc3c(C)c(C)c(Br)c(C)c32)nc1 (centres undefined)
Second: Cc1cc(-c2nnc3c4ccccc4c(OCc4ccnn4C)nn23)no1
The melting point of the first is lower: 105 to 106 °C for the first, 270 °C for the second.

Compared with `CCCc1nnc(-c2ccc(OC)cc2)s1`, `COc1ccc2cc(CCl)ccc2c1` is higher in melting point: 54 °C for the first, 63 to 65 °C for the second.

First: O=Cc1c(-c2ccccc2Br)ccc2c1OCO2
Second: CN(C)n1c(S)nc2ccccc2c1=O
The melting point of the first is lower: 89 to 91 °C for the first, 245 to 249 °C for the second.

First: N#Cc1ccc2c(c1)NC(=O)CO2
Second: CC(C)OC(=O)c1cc(-n2c(=O)[nH]c3c(c2=O)SCC3)c(F)cc1Cl
The melting point of the first is lower: 243 to 245 °C for the first, 252 to 254 °C for the second.

Compared with `CCOP(=O)(OCC)C1CCc2c([N+](=O)[O-])c(C(F)(F)F)cc3[nH]c(=O)c(=O)n1c23` (centres undefined), `CCCN(CCC)C(=O)N1CCc2ccc(S(=O)(=O)NC(=O)NC3CCCCC3)cc2CC1` is lower in melting point: 254 °C for the first, 179 to 180 °C for the second.

`CC#CCn1c(Cl)nc2c1c(=O)n(C)c(=O)n2C` gave a melting point of 105 to 108 °C.
